Source: paper PMC3636379, “Intracellular accumulation of aggregated pyroglutamate amyloid beta: convergence of aging and Aβ pathology at the lysosome” (Age, 2012)

Experiments:
[1] = target: T1, recombinant CTD (Homo sapiens, UniProt P07339); experiment: Degradation assay of internally quenched fluorescent Aβ peptides with cathepsin D; type: in vitro ADME; details: 10 pmol, 5 mU recombinant CTD, 100 mM sodium acetate pH 5.0, 37 °C, fluorescence ex 485 / em 520 nm, mean ± SD, two independent experiments (n = 10)
T1 construct: purchased Sigma
Method: Therefore, we investigated whether the pE-modified Aβ is more resistant to lysosomal degradation. To this end, a degradation assay with the major lysosomal hydrolase CTD was performed. For this purpose, we used internally quenched fluorescent Aβ peptides. Degradation of the peptides removes the quencher and restores the fluorescent signal (Reits et al. [2003]), thus allowing analysis of degradation over time by monitoring the increase in fluorescence. […] To investigate the effect of aggregation on degradation, we used pre-aggregated Aβ1-40 and Aβ3(pE)-40 in the CTD assay. […] Upon aggregation, the overall degradation is hampered, but the observed difference between the peptides is retained.
Aβ peptides containing fluorophore and quencher were synthesized by solid phase synthesis using an Fmoc strategy at the NKI peptide facility. […] Peptides were purified by RP-HPLC and evidenced the expected molecular mass as determined by mass spectrometry.
Immediately prior to use, HFIP-treated peptide films of fluorescently labeled internally quenched Aβ were resuspended in DMSO and further diluted in PBS. […] Degradation of quenched peptides was followed by monitoring the increase in fluorescence (excitation, 485–12 nm; emission, 520 nm, Fluostar Omega) at 37 °C. Background fluorescence of peptide incubated in buffer without CTD controls was subtracted. […]

[2] = system: differentiated SK-N-SH cells; experiment: Lysosomal membrane permeabilization: CTD in subcellular fractions, Western blot; type: cell-based; details: 1 μM oligomers, 16 h, three experiments
Method: (§1) To investigate whether Aβ3(pE)-42 oligomers affect the integrity of the lysosomes, lysosomal membrane permeabilization (LMP) was analyzed in differentiated SK-N-SH cells. A distinctive sign of LMP is the translocation of soluble lysosomal components, from the lysosomal lumen to the cytosol (Boya et al. [2003]). Differentiated SK-N-SH cells were treated with Aβ oligomers and the leakage of cathepsin D (CTD), a soluble lysosomal enzyme, from the lysosomal lumen to the cytosol was analyzed after subcellular fractionation on Western blot and by immunofluorescent staining. Treatment with Aβ3(pE)-42 oligomers led to a decrease of CTD in the membrane fraction (which also contained the lysosomes) whereas the cytosolic CTD was increased. […] The result was confirmed by immunofluorescent staining of CTD. Untreated cells reveal a particulate staining pattern, indicative of its localization within lysosomes (Fig. 1b).
SK-N-SH and HeLa cells were cultured in Dulbecco’s modified Eagle’s medium with GlutaMAX (Gibco BRL, Carlsbad, CA, USA) supplemented with 10 % fetal calf serum (FCS, Gibco BRL), 100 μg/ml streptomycin, and 100 U/ml penicillin. Cell lines are routinely checked for mycoplasma contamination using a specific 16S rRNA PCR-based assay; all cells used in this study were mycoplasma free. […]

[3] = system: differentiated SK-N-SH cells; experiment: Lysosomal membrane permeabilization: immunofluorescent staining of CTD; type: cell-based; details: 1 μM Aβ oligomers or hydroxychloroquine, 16 h; confocal microscopy
Method: as §1, with “1b). […] SK-N-SH and HeLa cells were cultured in Dulbecco’s modified Eagle’s medium with GlutaMAX (Gibco BRL, Carlsbad, CA, USA) supplemented with 10 % fetal calf serum (FCS, Gibco BRL), 100 μg/ml streptomycin, and 100 U/ml penicillin. Cell lines are routinely checked for mycoplasma contamination using a specific 16S rRNA PCR-based assay; all cells used in this study were mycoplasma free. […]” for “1b).”

T1 sequence (P07339 65-412): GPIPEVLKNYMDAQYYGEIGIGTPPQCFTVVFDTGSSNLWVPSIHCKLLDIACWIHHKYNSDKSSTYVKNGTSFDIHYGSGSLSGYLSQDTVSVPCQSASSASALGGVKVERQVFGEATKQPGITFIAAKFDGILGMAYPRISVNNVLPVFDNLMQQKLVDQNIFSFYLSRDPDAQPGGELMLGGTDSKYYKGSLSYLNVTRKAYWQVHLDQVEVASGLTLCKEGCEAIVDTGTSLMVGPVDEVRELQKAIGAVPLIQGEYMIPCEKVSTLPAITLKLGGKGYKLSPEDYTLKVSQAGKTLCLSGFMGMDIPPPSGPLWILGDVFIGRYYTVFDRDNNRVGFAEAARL

Row | Substance | time to reach the half-max fluorescence of degradation (t 1/2) ([1]; not pre-aggregated, internally quenched fluorescent peptide (Oregon green 488 at aa 22, dabcyl at aa 12)) [min] | time to reach the half-max fluorescence of degradation (t 1/2) ([1]; pre-aggregated peptide, internally quenched fluorescent peptide) [min] | CTD in the membrane fraction (containing the lysosomes) [2] | cytosolic CTD [2] | CTD staining pattern (release from lysosomes to cytoplasm) [3]
1 | Aβ1-40: internally quenched fluorescent Aβ peptide, Oregon green 488 at amino acid 22 and dabcyl at amino acid 12; pre-aggregated or not | 48.9 ± 4.3 | 63.6 ± 10.0 | – | – | –
2 | Aβ1-42: synthetic amyloid beta 1-42 purchased from Anaspec, used as oligomers | – | – | did not change | did not change | same pattern but to a lesser extent
